In EPA's ToxValDB 9.5 (doi:10.2903/j.efsa.2008.125r):
Values after ≈ are worked out from the molar mass of the structure shown.

Legend:
Apis mellifera = settings: acute; duration: 48 hours; oral; unspecified; mortality
Daphnia magna = settings: chronic/long-term; duration: 21 days; reproduction
Tagia sp. = settings: acute; duration: 14 days; mortality
Colinus virginianus = settings: for LD50: acute, oral, mortality
Coturnix japonica = settings: acute, oral, mortality
Anas platyrhynchos = settings: for LD50: oral, mortality
Oncorhynchus mykiss = settings: acute; duration: 96 hours; mortality
Canidae = settings: chronic; duration: 1 years; oral; Dog Other; hematological

Work on `CCCCCCCCCCCCC1=C(OC(C)=O)C(=O)c2ccccc2C1=O` [Acequinocyl] yielded an LEL (Typhlodromus pyri; acute, duration: 7 days, mortality) of 300 g/ha, an LEL (Typhlodromus pyri; not reported, reproduction) of 300 g/ha and an LD50 (Apis mellifera) of over 100 µg/piece. It also gave an NOEC (Daphnia magna) of 0.00098 mg/L, an LC50 (Tagia sp.) of over 1000 mg/kg and an LD50 (Colinus virginianus; diet) of over 159 mg/kg. It also gave an LD50 (Colinus virginianus) of over 300 mg/kg, an NOEL (Colinus virginianus; reproduction developmental) of 217 mg/kg-day and an LD50 (Coturnix japonica; diet) of over 847 mg/kg. For the same compound, the LD50 (Coturnix japonica) was over 1940 mg/kg, the LD50 (Anas platyrhynchos; acute, unspecified) was over 1940 mg/kg and the NOEL (Anas platyrhynchos; reproductive) was 7.48 mg/kg. For the same compound, the LD50 (Anas platyrhynchos; short-term, feed) was over 1340 mg/kg, the NOAEL (Rattus norvegicus; acute, oral, hematological) was 8 mg/kg-day and the LD50 (Rattus norvegicus; acute, oral, mortality) was over 4860 mg/kg. The NOAEL (Rattus norvegicus; chronic, duration: 2 years, clinical signs) was 2.3 mg/kg-day, the NOAEL (Rattus norvegicus; reproduction developmental, clinical signs) was 6.9 mg/kg-day and the LC50 (Oncorhynchus mykiss) was 65 µg/mL (≈ 169 µM). For the same compound, the NOAEL (Canidae) was 5 mg/kg-day.
